Measured values taken from patent US10800814B2, “Cyclic peptidomimetics, compositions containing them and their use in the treatment of diseases associated with angiogenesis” (priority 2015, dated 2020).
pIC50: −log10 of the molar value. Positions of bridges follow the written chain, without caps; N, C: chain ends. Residues, ends and D or L forms follow the SMILES beside them. Chains are numbered I, II in the order given. No end group written: not given here.

Molecular target: T1, VEGF165/NRP-1 (Rattus norvegicus, UniProt Q9QWJ9)
T1 construct: purchased R&D Systems
T1 sequence (Q9QWJ9 22-854 limits assumed): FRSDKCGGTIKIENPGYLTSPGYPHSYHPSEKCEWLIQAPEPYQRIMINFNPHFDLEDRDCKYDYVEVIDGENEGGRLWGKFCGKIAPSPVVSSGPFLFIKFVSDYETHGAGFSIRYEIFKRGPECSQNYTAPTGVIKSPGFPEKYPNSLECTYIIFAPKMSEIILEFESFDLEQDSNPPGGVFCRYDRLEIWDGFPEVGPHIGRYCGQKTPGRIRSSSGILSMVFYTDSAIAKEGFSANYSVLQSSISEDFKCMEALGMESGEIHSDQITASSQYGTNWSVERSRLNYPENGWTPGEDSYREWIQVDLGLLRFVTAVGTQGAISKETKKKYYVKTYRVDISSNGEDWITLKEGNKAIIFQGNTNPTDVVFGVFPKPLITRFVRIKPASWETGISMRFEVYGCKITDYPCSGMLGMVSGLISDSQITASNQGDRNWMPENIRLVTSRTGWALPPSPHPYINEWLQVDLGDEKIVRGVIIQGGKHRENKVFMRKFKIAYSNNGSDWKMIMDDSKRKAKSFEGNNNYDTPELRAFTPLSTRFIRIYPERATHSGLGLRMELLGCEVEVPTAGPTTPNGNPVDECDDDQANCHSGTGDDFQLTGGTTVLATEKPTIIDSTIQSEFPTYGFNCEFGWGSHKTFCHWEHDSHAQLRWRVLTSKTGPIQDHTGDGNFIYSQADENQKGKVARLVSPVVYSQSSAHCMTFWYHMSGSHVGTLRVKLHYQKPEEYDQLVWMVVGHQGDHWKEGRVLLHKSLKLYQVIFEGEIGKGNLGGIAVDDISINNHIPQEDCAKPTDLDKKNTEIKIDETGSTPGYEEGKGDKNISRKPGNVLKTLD
Test: biochemical
Format: binding
Conditions: for pIC50: VEGF165/NRP-1 binding inhibition
Procedure: Selected compounds were tested in vitro by measuring the inhibition binding of VEGF165 to NRP-1. This assay allows the determination of percentage inhibition of the tested compound at a predetermined concentration. Determination of the Inhibitory Activity of the Tested Compounds. The evaluation of the inhibitory effect of peptidomimetics was performed using an enzymatic method denoting the spectrophotometric displacement of the VEGF165 ligand from the specific receptor by the evaluated compound. The studies were performed using polystyrene 96-well plates (Maxisorb, Nunc.). The Procedure for Determining the Inhibition of VEGF165/NRP-1. To evaluate the biological inhibitory activity of selected molecules in each well of flat bottom polystyrene plate of 96-wells (Maxisorb, Nunc,) a 100 μl of a solution containing 2 μg/ml of anti-Fc IgG (Sigma-Aldrich) dissolved in a phosphate buffer PBS (PBS, Sigma) was placed. The plate was allowed to stand overnight at 4° C. The next day, wells were washed three times with 100 μl PBS, and then saturated with 2% bovine serum albumin (BSA, Sigma) in PBS in order to eliminate non-specific interactions. After 2 hours of incubation at 37° C. the following solutions were added portionwise: 50 μl of purified recombinant rat NRP1-Fc (R&D Systems, Abingdon, UK) in a solution of 20 ng/well protein dissolved in PBS-BSA 0.1% tween-80 0.005% (PBT), 50 μl of compound solution in PBT in an appropriate concentration […] The total volume of added solution was 150 μl. After an overnight incubation at 4° C., the wells were washed with PBT and treated with streptavidin-HRP polymer (horseradish peroxidase, Sigma). The plate was incubated for 1 hour at room temperature. […] After 2 hours, the absorbance was measured at wavelength of 415 nm with respect to 470 nm. […] In the control wells the tested compound was absent, but the respective concentration of DMSO was maintained. The heptapeptide A7R (ATWLPPR (SEQ ID NO:1)) was used as a positive control on every 96-well plate.

Row | pIC50 | decrease in inhibition with decreasing concentration (reduction of concentrations of 10-0.3 μM) | Compound
1 | 6.34 |  | N=C(N)NCCCC(NC(=O)C1CCC(=O)NC(CCCCN)C(=O)N2CCCC2C(=O)NC(C(=O)NC(CCCNC(=N)N)C(=O)O)CCC(=O)NC(CCCCN)C(=O)N2CCCC2C(=O)N1)C(=O)O (stereo not drawn) [(c[Lys-Pro-Glu]-Arg-OH)2] (I: KPER-OH / II: KPER-OH; amide I:3-II:N, I:N-II:3; configuration not given here)
2 | 6.74 |  | N=C(N)NCCCC(NC(=O)C1CCC(=O)NCCCCC(N)C(=O)N2CCCC2C(=O)N1)C(=O)O (stereo not drawn) [H-c[Lys-Pro-Glu]-Arg-OH] (H-KPER-OH; lactam 1-3; configuration not given here)
3 |  | 5 fold | ATWLPPR [A7R, ATWLPPR, reference compound]
